Data published in US8084602B2, “Porphyrin derivatives and their use in photodynamic therapy” (Destiny Pharma Limited, priority 2002, dated 2011).
Where two headings read alike, the source gives them in different places.

Legend:
[1] = tested on: S. aureus ATCC BAA-44 (a methicillin resistant S. aureus); experiment: Cell survival (colony forming unit) with or without illumination; assay type: cell-based, Staphylococcus aureus; conditions: S. aureus
Method: (§1) The toxic effects of exemplary compounds of the invention against two bacterial strains, the Gram negative bacterium Escherichia coli (strain ATCC 25922) and the Gram positive bacterium Staphylococcus aureus (methicillin-resistant strain ATTC BAA-44), were evaluated by measuring the extent of growth inhibition (bacteriostatic effect) and growth […] (cytocidal effect) in the dark and upon light exposure. Initial compound screening was undertaken using white light [390-740 nm] (150 mW/cm^2) for various timepoints of a concentration of 3 μM (see Table 1). Further experiments were undertaken on those compounds identified from this initial screen using a light source emitting light at a wavelength between 417-420 nm at 15.2 mW/cm^2, 13.68 J/cm^2 (Waldmann Eclairage SA, France) (see Table 20.
(§2) For the further investigation of the exemplary compounds (Table 2), the following protocol was adopted: • (i) Bacteria (S. aureus BAA-44 and E. coli 25922) were grown in brain heart infusion (BHI) broth until they reached the stationary phase of growth. • (ii) The cells were harvested by centrifugation (3000 g for 15 min) with a table centrifuge, washed with 10 mM PBS at pH 7.4 containing 2.7 mM KCl and 0.14 M NaCl and suspended in PBS at an optical density of 0.7 at 650 nm corresponding to 10^8-10^9 cells/ml. • (iii) The bacteria, at the desired cell density (˜10^8 cells/ml) were incubated for 5 min in the dark with various concentrations of the exemplary compounds. • (iv) At the end of the incubation period the cells were washed three times with PBS, suspended in PBS, transferred into a 96-well microtitre plate (200 μl/well) and illuminated for 15 min with the Waldmann light source (15.2 mW/cm^2; 13.7 J/cm^2). The cells were illuminated from the bottom of the plate laying it on the glass cover of the lamp. • (v) After illumination, cell survival was determined by plating serially diluted aliquots of treated and untreated (i.e. no exemplary compound or light present) cells onto brain heart agar (BHA) and counting the number of colonies after 18-24 h incubation at 37° C.
(§3) the above colony forming unit (CFU) protocol was also used to investigate the photodynamic activity of very low concentrations of the compounds of the invention.

[2] = tested on: normal human dermal fibroblasts (NHDF); experiment: Toxicity against human skin cells, MTT-assay; assay type: cell-based
Method: (§4) Test compounds were screened for toxicity against cultured human skin cells using normal human epidermal keratinocytes (NHEK) and normal human dermal fibroblasts (NHDF), purchased from CellSystems Biotechnologie GmbH, Germany.
(§5) The NHEK and NHDF cells were used between passages 3 and 10. The cells were seeded with 7.5 and/or 15×10^4 cells/well (microtitreplate) and allowed to attach overnight in an incubator (37° C., 5% CO2). […]
(§6) Phototoxicity was tested by standard MTT-assay (Mossman et al., 1983, Immunological Methods 65:55-63). MTT is an indicator of metabolically active cells. Dependent on enzyme activity in mitochondria a colour reaction can be visualised, which can be measured by ELISA reader (540 nm). The cell viability data were normalised, i.e. the OD values of cells after PDT without photosensitisers were adjusted to one. Each experiment was repeated three times.

[3] = tested on: normal human epidermal keratinocytes (NHEK); experiment: Toxicity against human skin cells, MTT-assay; assay type: cell-based
Method: as §4, §5, §6

[4] = tested on: bacterial cells compared to human skin cells; experiment: Selectivity for bacteria compared to human skin cells; assay type: cell-based
Method: as §2, §4
The NHEK and NHDF cells were used between passages 3 and 10. The cells were seeded with 7.5 and/or 15×10^4 cells/well (microtitreplate) and allowed to attach overnight in an incubator (37° C., 5% CO2). After incubation with different concentrations of the selected photosensitisers, the cells were illuminated for fifteen minutes (Light source 236, Waldmann; 15.2 mW/cm^2, 13.7 J/cm^2) and then incubated for 24 hours in the dark.
as §6

[5] = tested on: Escherichia coli (strain ATCC 25922); experiment: Initial screening: growth inhibition after white light illumination; assay type: cell-based; conditions: Escherichia coli, 5 min incubation, read-out: Growth inhibition (%)
Method: as §1
(§7) The following protocol was used for the initial screening of the exemplary compounds (Table 1) (see Reddi et al., 2002, Photochem. Photobiol. 75(5):462-470): • (i) E. coli and S. aureus cells were grown overnight on brain heart infusion agar, resuspended in brain heart infusion broth, harvested by centrifugation (3000 g for 15 minutes) and washed once with phosphate buffered saline (PBS) at pH 7.4 consisting 2.7 mM KCl and 0.14 M NaCl. • (ii) The cells were then resuspended in PBS to an optical density at 650 nm of 0.7, which corresponds to a density of 10^8 to 10^9 cells/ml. • (iii) Next, the cells were incubated in PBS in the dark for 5 minutes with 3.0 μM of the compound to be tested. • (iv) After dark incubation, cells were illuminated with white light (wavelength: 390 to 740 nm) (150 mW/cm^2) for up to 30 minutes. During illumination, the cells were kept at 37° C. and magnetically stirred. • (v) Finally, treated and untreated (control) cells were diluted in brain heart infusion broth and maintained at […] while the absorbance of the suspension at 650 nm was monitored at predetermined time points for determining growth curves.
(§8) The percent of growth inhibition in the treated cells was calculated by the following equation: [1−(Ax−A0)/(Ac−A0)]×100 where Ax Ac are the absorbances measured after 3 hours incubation, for the treated and control cell suspensions, respectively, and A0 represents the initial absorbance.

[6] = tested on: Staphylococcus aureus (methicillin-resistant strain ATTC BAA-44); experiment: as above; assay type: cell-based; conditions: Staphylococcus aureus, 5 min incubation, read-out: Growth inhibition (%)
Method: as §1, §7, §8

[7] = tested on: E. coli ATCC 25922; experiment: Cell survival (colony forming unit) with or without illumination; assay type: cell-based, Escherichia coli; conditions: E. coli
Method: as §1, §2, §3

[8] = Chemical stability, qualitative stress tests (HPLC, LC-MS); assay type: physicochemical; conditions: solid, aqueous solution and PBS; 7 days each at 50° C., 70° C., 90° C.
Method: The following HPLC methodology was established for the analysis of the exemplary compounds of the invention.
The method involves detection by UV at a wavelength of 420 nm, which is very specific for these compounds. In order to monitor impurities not related to the porphyrin structure (and therefore not absorbing at 420 nm) UV spectra of the whole chromatograms were also recorded between 200 nm and 700 nm by DAD (diode array detector) in certain experiments.
Qualitative stress tests were undertaken on the exemplary compounds of the invention. Analysis was undertaken by HPLC & LC-MS. The compounds were stress tested in solid form, in an aqueous solution and a solution made up in phosphate-buffered saline buffer. The samples were initially incubated for 7 days at 50° C. and a sample removed for testing. The samples were then incubated for a further 7 days at 70° C., samples removed as before and the samples incubated further for 7 days at 90° C. HPLC analysis of freshly prepared solutions was undertaken and compared to the samples after 7, 14 and 21 days incubation. A visual comparison of the chromatograms was then undertaken and the content of the main products and by-products as area percentage values determined (see FIG. 11).

[9] = dark toxicity (no illumination), 10 μM
[10] = photodynamic activity, 0.1 μM, illumination 15 min
[11] = photodynamic activity, 1 μM, illumination 15 min
[12] = dark toxicity, 1 μM, no illumination
[13] = dark toxicity, 10 μM, no illumination
[14] = photodynamic activity (light toxicity), 0.01 μM, illumination 15 min
[15] = photodynamic activity (light toxicity), 0.1 μM, illumination 15 min
[16] = photodynamic activity (light toxicity), 1 μM, illumination 15 min
[17] = dark toxicity (no illumination), 1 μM

Row | Compound | Log reduction [1, 9] | Log reduction [1, 10] | Log reduction [1, 11] | Survival [2, 12] [%] | Survival [2, 13] [%] | Survival [2, 14] [%] | Survival [2, 15] [%] | Survival [2, 16] [%] | Survival [3, 12] [%] | Survival [3, 13] [%] | Survival [3, 14] [%] | Survival [3, 15] [%] | Survival [3, 16] [%] | Log reduction [1, 17] | further results
1 | C[N+](C)(C)CCCOc1ccc(-c2c3nc(c(-c4ccc(OCCC[N+](C)(C)C)cc4)c4ccc([nH]4)c(-c4ccc(OCCC[N+](C)(C)C)cc4)c4nc(c(-c5ccc(OCCC[N+](C)(C)C)cc5)c5ccc2[nH]5)C=C4)C=C3)cc1.[Cl-].[Cl-].[Cl-].[Cl-] [Compound 1, 5,10,15,20-tetrakis-[4-(3-Trimethylammonio-propyloxy)-phenyl]-porphyrin tetrachloride, reference compound] | <1 (<10^−1) | <1 (<10^−1) | >6 (>10^−6) | 100 | 92 | 100 | 39 | 2 | 100 | 83 | 94 | 52 | 0.4 | – | toxicity to bacterial cells compared to human cells [4]: equal toxicity to bacterial and human cells
2 | CCCCCCCCCCCc1c2nc(cc3ccc([nH]3)c(-c3cc(OCCC[N+](C)(C)C)cc(OCCC[N+](C)(C)C)c3)c3nc(cc4ccc1[nH]4)C=C3)C=C2.[Cl-].[Cl-] [Compound 6, 5-[3,5-bis-(3-Trimethylammonio-propyloxy)-phenyl]-15-undecyl-porphyrin dichloride] | 2 (10^−2) | 3 (10^−3) | 6 (10^−6) | – | – | – | – | – | – | – | – | – | – | 1 (<10^−1) | inhibition at 3 µM ([5]; ATCC25922, 5 min, E. coli, illumination time 5 min): 30%; inhibition at 3 µM ([5]; ATCC25922, E. coli, illumination time 0 min): 9%; inhibition at 3 µM ([5]; ATCC25922, E. coli, illumination time 1 min): 17%; inhibition at 3 µM ([5]; ATCC25922, E. coli, illumination time 10 min): 54%; inhibition at 3 µM ([5]; ATCC25922, E. coli, illumination time 15 min): 69%; inhibition at 3 µM ([5]; ATCC25922, E. coli, illumination time 30 min): 93%; inhibition at 3 µM ([6]; BAA44, 5 min, S. aureus, illumination time 5 min): 100%; inhibition at 3 µM ([6]; BAA44, S. aureus, illumination time 0 min): 29%; inhibition at 3 µM ([6]; BAA44, S. aureus, illumination time 1 min): 100%; inhibition at 3 µM ([6]; BAA44, S. aureus, illumination time 10 min): 100%; inhibition at 3 µM ([6]; BAA44, S. aureus, illumination time 15 min): 100%; inhibition at 3 µM ([6]; BAA44, S. aureus, illumination time 30 min): 100%
3 | C[N+](C)(C)CCCOc1cccc(-c2c3nc(cc4ccc([nH]4)c(-c4cccc(OCCC[N+](C)(C)C)c4)c4nc(cc5ccc2[nH]5)C=C4)C=C3)c1.[Cl-].[Cl-] [Compound 12, 5,15-bis-[3-(3-trimethylammonio-propyloxy)-phenyl]-porphyrin dichloride] | – | >3 (>10^−3) | >6 (>10^−6) | 100 | 95 | 100 | 85 | 1.0 | 100 | 92 | 97 | 75 | 0.5 | <1 (<10^−1) | Log reduction [7, 17]: <1 (<10^−1); Log reduction ([7]; photodynamic activity, 0.5 μM, illumination 15 min): <1 (<10^−1); Log reduction [7, 11]: >6 (>10^−6); Log reduction ([1]; photodynamic activity, 0.005 μM, illumination 15 min): <2 (<10^−2); toxicity to bacterial cells compared to human skin cells ([4]; at a dose of 0.1 μM): preferentially toxic to bacterial cells compared to human skin cells; chemical stability under stress test [8]: good stability
